This note sets out measurements from paper PMC5063977 (The Journal of Biological Chemistry, 2016).

Type in all cases: cell-based
Assay [1] deals with T1, RAMP2-CLR (AM1 receptor) (Homo sapiens, UniProt O60895+Q16602).
T1 construct: FLAG; expressed in transfected cells; host or cells: HEK-293 or HEK-293S cells, transient transfection, 1:1 RAMP:CLR
Put plainly: S. cerevisiae growth assay, GPA1/Gαi chimera, RAMP2 + CLR. To be noted: percentage of yeast strain MMY11 (lacking GPA1); 20 h; mean ± S.E., n = 6. Here is the method:
FIGURE 3. […] Reporter gene activity was determined following 20 h of stimulation.
General yeast procedures were performed as described previously ([22], [24]). The human CLR was introduced into yeast cells under the control of the PGK promoter using a plasmid containing ura3 (pDT-PGK). The three human RAMPs were introduced into yeast under the control of the GAPDH promoter using plasmids containing leu2 (p425-GPD) ([25]). S. cerevisiae dual reporter strains expressing chimeras of yeast GPA1(1–467) (GPA1/Gα) with the five C-terminal amino acids of […] human G proteins representing Gαs, Gα16, Gαq, Gαo, Gαi1/2, Gαi3, Gαz, Gα12, Gα13, and Gα14 (MMY84–MMY93) were used in this study ([52]). […] Receptor signaling was measured using the yeast growth assay as described previously ([24]). […] A fluorescein signal was detected as an increase in fluorescence (excitation wavelength = 485 nm, emission wavelength = 535 nm) as a measure of growth. Different concentrations of ligand (0.01 nM–100 μM) were assayed using 96-well plates, and fluorescence was detected using a Tecan Infinite M200 microplate reader (Tecan Ultra Evolution, Reading, UK) or a Mithras LB 940 microplate reader (Berthold Technologies, Harpenden, UK) for 20 h. […]

Assay [2] addresses T1, RAMP2-CLR (AM1 receptor). Put plainly: cAMP accumulation, HEK-293S cells, RAMP2 + CLR. The conditions noted are these: HEK293S, untreated, percentage of maximal cAMP with 100 μM forskolin in presence of PTX, mean ± S.E., n = 5. Here is the method:
(§1) HEK-293 cells were transfected with FuGENE 6 (Roche Applied Science) in accordance with the manufacturer's instructions using a 1:3 (w:v) DNA:FuGENE ratio and a 1:1 ratio of RAMP to CLR. […] The transfected cell lines were grown for 24–48 h prior to assaying.
(§2) The transfected HEK-293 cells were washed in PBS, resuspended in stimulation buffer (PBS containing 0.1% BSA and 0.5 mM IBMX), and seeded at 2000 cells/well in 384-well white Optiplates. Ligands were added in the range of 1 pM to 1 mM, and cAMP accumulation was measured after 30 min of stimulation using a LANCE® cAMP detection kit (PerkinElmer Life Sciences). […] Plates were read using a Mithras LB 940 multimode microplate reader (Berthold Technologies). […] Values were converted to concentration using a cAMP standard curve performed in parallel.
Data analysis for cAMP assays was performed in GraphPad Prism 6.0f (San Diego, CA). […] These values were then used to quantify signaling bias as change in log (τ/Ka) relative to the natural cognate ligand for the respective receptor ([41]). […] Statistical differences were analyzed using one-way ANOVA or Student's t test as appropriate with post hoc Bonferroni's or Dunnett's multiple comparisons, and p < 0.05 was considered significant. […] To quantitate the ligand-dependent response in the yeast system, a strain lacking GPA1 (MMY11), grown in rich medium, was used as a standard ([72]). […]
A general note: Cyclic AMP is a second messenger, typically raised through Gs and lowered through Gi signalling.

Assay [3] has as its target T2, RAMP1-CLR (CGRP receptor) (Homo sapiens, UniProt O60894+Q16602).
T2 construct: FLAG; expressed in transfected cells; host or cells: HEK-293 or HEK-293S cells, transient transfection, 1:1 RAMP:CLR
The assay can be described thus: cAMP accumulation, HEK-293 cells, RAMP1 + CLR. The conditions noted are these: mean ± S.E. Here is the method:
as §1, §2
Data analysis for cAMP assays was performed in GraphPad Prism 6.0f (San Diego, CA). Data were fitted to obtain concentration-response curves using either the three-parameter logistic equation (for pEC50 values) or the operational model for partial agonism ([34]) to obtain values of efficacy (log τ) and the equilibrium dissociation constant (log Ka). These values were then used to quantify signaling bias as change in log (τ/Ka) relative to the natural cognate ligand for the respective receptor ([41]). […] Statistical differences were analyzed using one-way ANOVA or Student's t test as appropriate with post hoc Bonferroni's or Dunnett's multiple comparisons, and p < 0.05 was considered significant. […] For RT-PCR, normalization to the internal standard GAPDH was performed to reduce variance and enable a comparison between different cell lines. To quantitate the ligand-dependent response in the yeast system, a strain lacking GPA1 (MMY11), grown in rich medium, was used as a standard ([72]). As GPA1 is not present in this strain, the Gβγ subunits are unregulated and free to signal, allowing us to determine the maximal response of our system. […] For the mammalian cell-based assays, data analysis was carried out as for the yeast curves. […]

T2 sequence (Q16602 23-461): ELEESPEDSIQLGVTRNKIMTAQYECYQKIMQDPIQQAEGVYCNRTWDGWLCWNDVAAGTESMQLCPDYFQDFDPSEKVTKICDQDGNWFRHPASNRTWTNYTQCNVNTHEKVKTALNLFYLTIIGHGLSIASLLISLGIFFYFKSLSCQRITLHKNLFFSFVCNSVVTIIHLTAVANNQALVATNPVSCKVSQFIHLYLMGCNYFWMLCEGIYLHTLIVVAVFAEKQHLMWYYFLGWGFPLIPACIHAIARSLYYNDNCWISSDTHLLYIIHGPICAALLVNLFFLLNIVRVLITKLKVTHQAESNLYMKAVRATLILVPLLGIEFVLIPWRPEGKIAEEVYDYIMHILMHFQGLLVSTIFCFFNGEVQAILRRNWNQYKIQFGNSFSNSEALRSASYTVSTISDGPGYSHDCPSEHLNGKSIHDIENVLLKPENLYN
T2 sequence (O60894 27-148): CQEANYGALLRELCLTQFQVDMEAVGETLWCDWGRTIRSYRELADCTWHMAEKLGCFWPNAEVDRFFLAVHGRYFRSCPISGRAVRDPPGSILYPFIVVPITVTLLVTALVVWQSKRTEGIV
T1 sequence (Q16602 23-461): as the sequence (Q16602 23-461) above
T1 sequence (O60895 43-175): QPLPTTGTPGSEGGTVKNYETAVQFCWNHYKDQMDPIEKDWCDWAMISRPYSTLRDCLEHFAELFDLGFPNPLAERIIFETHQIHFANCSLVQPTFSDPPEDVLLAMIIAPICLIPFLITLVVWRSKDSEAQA

Regarding `CSCC[C@H](NC(=O)[C@H](CC(C)C)NC(=O)[C@H](CCC(N)=O)NC(=O)[C@H](Cc1c[nH]c2ccccc12)NC(=O)[C@H](CC(C)C)NC(=O)[C@H](CCCNC(=N)N)NC(=O)[C@H](Cc1c[nH]cn1)NC(=O)[C@H](CO)NC(=O)[C@H](CC(C)C)NC(=O)[C@H](CC(N)=O)NC(=O)[C@H](CCC(N)=O)NC(=O)[C@@H](NC(=O)[C@H](CCC(N)=O)NC(=O)[C@@H]1CSSC[C@H](NC(=O)CNC(=O)[C@@H](NC(=O)[C@H](CCCNC(=N)N)NC(=O)[C@H](CC(C)C)NC(=O)[C@H](CC(C)C)NC(=O)[C@H](CCC(N)=O)NC(=O)[C@H](C)NC(=O)[C@H](CCC(N)=O)NC(=O)[C@@H](N)[C@@H](C)O)C(C)C)C(=O)N[C@@H](C(C)C)C(=O)N[C@@H](CC(C)C)C(=O)NCC(=O)N[C@@H]([C@@H](C)O)C(=O)N1)C(C)C)C(=O)NCC(=O)N1CCC[C@H]1C(=O)N[C@@H](C)C(=O)NCC(=O)N[C@@H](CCCNC(=N)N)C(=O)N[C@@H](CCC(N)=O)C(=O)N[C@@H](CC(=O)O)C(=O)N[C@@H](CO)C(=O)N[C@@H](C)C(=O)N1CCC[C@H]1C(=O)N[C@H](C(=O)N[C@@H](CC(=O)O)C(=O)N1CCC[C@H]1C(=O)N[C@@H](CO)C(=O)N[C@@H](CO)C(=O)N1CCC[C@H]1C(=O)N[C@@H](Cc1c[nH]cn1)C(=O)N[C@@H](CO)C(=O)N[C@@H](Cc1ccc(O)cc1)C(N)=O)C(C)C` [AM2, adrenomedullin 2], the Emax came out at 15.7 ± 2.5% in assay [1] and 40.3 ± 1.5% in assay [2].
For the compound `CC[C@H](C)[C@H](NC(=O)[C@H](CCC(N)=O)NC(=O)[C@H](Cc1c[nH]cn1)NC(=O)[C@H](C)NC(=O)[C@H](CC(C)C)NC(=O)[C@H](CCCCN)NC(=O)[C@H](CCC(N)=O)NC(=O)[C@@H](NC(=O)[C@@H](NC(=O)[C@@H]1CSSC[C@H](NC(=O)CNC(=O)[C@H](Cc2ccccc2)NC(=O)[C@H](CO)NC(=O)[C@H](CCCNC(=N)N)NC(=O)[C@H](CC(C)C)NC(=O)CNC(=O)[C@H](CCC(N)=O)NC(=O)[C@H](Cc2ccccc2)NC(=O)[C@H](CC(N)=O)NC(=O)[C@H](CC(N)=O)NC(=O)[C@H](CCSC)NC(=O)[C@H](CO)NC(=O)[C@H](CCC(N)=O)NC(=O)[C@H](CCCNC(=N)N)NC(=O)[C@@H](N)Cc2ccc(O)cc2)C(=O)N[C@@H](CCCNC(=N)N)C(=O)N[C@@H](Cc2ccccc2)C(=O)NCC(=O)N[C@@H]([C@@H](C)O)C(=O)N1)[C@@H](C)O)C(C)C)C(=O)N[C@@H](Cc1ccc(O)cc1)C(=O)N[C@@H](CCC(N)=O)C(=O)N[C@@H](Cc1ccccc1)C(=O)N[C@H](C(=O)N[C@@H](CC(=O)O)C(=O)N[C@@H](CCCCN)C(=O)N[C@@H](CC(=O)O)C(=O)N[C@@H](CCCCN)C(=O)N[C@@H](CC(=O)O)C(=O)N[C@@H](CC(N)=O)C(=O)N[C@H](C(=O)N[C@@H](C)C(=O)N1CCC[C@H]1C(=O)N[C@@H](CCCNC(=N)N)C(=O)N[C@@H](CO)C(=O)N[C@@H](CCCCN)C(=O)N[C@H](C(=O)N[C@@H](CO)C(=O)N1CCC[C@H]1C(=O)N[C@@H](CCC(N)=O)C(=O)NCC(=O)N[C@@H](Cc1ccc(O)cc1)C(N)=O)[C@@H](C)CC)C(C)C)[C@@H](C)O` [AM, adrenomedullin], the Emax in assay [3] (HEK293, PTX treated (200 ng/ml, 16 h), percentage of maximal cAMP with 100 μM forskolin in presence of PTX, n = 6 (Table 3)) stood at 72.2 ± 1.7%; in assay [3] (HEK293, percentage of maximal cAMP with 100 μM forskolin, HEK-293, 30 min, n = 11 (Table 2)), 45.2 ± 3.7%; in assay [3] (HEK293, untreated, percentage of maximal cAMP with 100 μM forskolin in presence of PTX, n = 9 (Table 3)), 48.1 ± 2.5%.
